Source: PubChem BioAssay AID1963962 (Molecular Pharmacology Branch, DTP, NCI, 2024)

Tested on: 967376-340-R-J2-PDC multicell spheroid viability
Experiment: Anticancer human tumor 967376-340-R-J2-PDC patient-derived colon adenocarcinoma cell line growth inhibition [PI3K]
Details: for IC50: curve of first compound; for viability, T/C: stronger effect = lower value
Method in brief: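 High-throughput combination screen: PI3K inhibitors crossed with targeted small molecules on complex spheroids of tumor cells, HUVEC and MSCs at 37 degrees C, 5% CO2. Top concentration was at or near clinical Cmax (otherwise 10 microM), with half-log decrements.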

[1] = second compound 0.00316 µM, first compound 0.0316 µM
[2] = second compound 0.00316 µM, first compound 0.1 µM
[3] = second compound 0.00316 µM, first compound 0.316 µM
[4] = second compound 0.00316 µM, first compound 1 µM
[5] = second compound 0.00316 µM, first compound 3.16 µM
[6] = second compound 0.00316 µM, first compound 10 µM
[7] = second compound 0.01 µM, first compound 0.0316 µM
[8] = second compound 0.01 µM, first compound 0.1 µM
[9] = second compound 0.01 µM, first compound 0.316 µM
[10] = second compound 0.01 µM, first compound 1 µM
[11] = second compound 0.01 µM, first compound 3.16 µM
[12] = second compound 0.01 µM, first compound 10 µM
[13] = second compound 0.0316 µM, first compound 0.0316 µM
[14] = second compound 0.0316 µM, first compound 0.1 µM
[15] = second compound 0.0316 µM, first compound 0.316 µM
[16] = second compound 0.0316 µM, first compound 1 µM
[17] = second compound 0.0316 µM, first compound 3.16 µM
[18] = second compound 0.0316 µM, first compound 10 µM
[19] = second compound 0.1 µM, first compound 0.0316 µM
[20] = second compound 0.1 µM, first compound 0.1 µM
[21] = second compound 0.1 µM, first compound 0.316 µM
[22] = second compound 0.1 µM, first compound 1 µM
[23] = second compound 0.1 µM, first compound 3.16 µM
[24] = second compound 0.1 µM, first compound 10 µM
[25] = second compound 0.316 µM, first compound 0.0316 µM
[26] = second compound 0.316 µM, first compound 0.1 µM
[27] = second compound 0.316 µM, first compound 0.316 µM
[28] = second compound 0.316 µM, first compound 1 µM
[29] = second compound 0.316 µM, first compound 3.16 µM
[30] = second compound 0.316 µM, first compound 10 µM
[31] = second compound 1 µM, first compound 0.0316 µM
[32] = second compound 1 µM, first compound 0.1 µM
[33] = second compound 1 µM, first compound 0.316 µM
[34] = second compound 1 µM, first compound 1 µM
[35] = second compound 1 µM, first compound 3.16 µM
[36] = second compound 1 µM, first compound 10 µM
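Also: spheroids exposed to agents for 7 days before read-out.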
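For viability, T/C in this document: luminescence used as surrogate of cell viability.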

## CC(C)NCC(C(=O)N1CCN(c2ncnc3c2C(C)CC3O)CC1)c1ccc(Cl)cc1 (stereo not drawn) + COc1c(OCCCN2CCOCC2)ccc2c3n(c(=NC(=O)c4cnc(N)nc4)nc12)CCN3
Second compound 0.00316 µM
  IC50: > 10000 nM
Second compound 0.01 µM
  IC50: > 10000 nM
Second compound 0.0316 µM
  IC50: > 10000 nM
Second compound 0.1 µM
  IC50: > 10000 nM
Second compound 0.316 µM
  IC50: < 31.6 nM
Second compound 1 µM
  IC50: < 31.6 nM
[1]
  viability, T/C: 79.8%
[2]
  viability, T/C: 100%
[3]
  viability, T/C: 78.2%
[4]
  viability, T/C: 83.5%
[5]
  viability, T/C: 73%
[6]
  viability, T/C: 85.4%
[7]
  viability, T/C: 90.9%
[8]
  viability, T/C: 75.4%
[9]
  viability, T/C: 102%
[10]
  viability, T/C: 66.9%
[11]
  viability, T/C: 76%
[12]
  viability, T/C: 75.5%
[13]
  viability, T/C: 78.8%
[14]
  viability, T/C: 61.5%
[15]
  viability, T/C: 62.5%
[16]
  viability, T/C: 66.7%
[17]
  viability, T/C: 82.9%
[18]
  viability, T/C: 66.4%
[19]
  viability, T/C: 53.7%
[20]
  viability, T/C: 54.1%
[21]
  viability, T/C: 74.5%
[22]
  viability, T/C: 49%
[23]
  viability, T/C: 57.9%
[24]
  viability, T/C: 47.5%
[25]
  viability, T/C: 38.4%
[26]
  viability, T/C: 35.5%
[27]
  viability, T/C: 57.1%
[28]
  viability, T/C: 33.9%
[29]
  viability, T/C: 52.5%
[30]
  viability, T/C: 49.4%
[31]
  viability, T/C: 48.4%
[32]
  viability, T/C: 25.3%
[33]
  viability, T/C: 37.2%
[34]
  viability, T/C: 26.1%
[35]
  viability, T/C: 47.6%
[36]
  viability, T/C: 48.7%

## CCN1CCN(Cc2ccc(Nc3ncc(F)c(-c4cc(F)c5nc(C)n(C(C)C)c5c4)n3)nc2)CC1 + COc1c(OCCCN2CCOCC2)ccc2c3n(c(=NC(=O)c4cnc(N)nc4)nc12)CCN3
Second compound 0.00316 µM
  IC50: > 1000 nM
Second compound 0.01 µM
  IC50: > 1000 nM
Second compound 0.0316 µM
  IC50: 769 nM
Second compound 0.1 µM
  IC50: 25 nM
Second compound 0.316 µM
  IC50: < 3.16 nM
Second compound 1 µM
  IC50: < 3.16 nM
Second compound 0.00316 µM, first compound 0.00316 µM
  viability, T/C: 85.1%
Second compound 0.00316 µM, first compound 0.01 µM
  viability, T/C: 95.7%
[1]
  viability, T/C: 87.6%
[2]
  viability, T/C: 83.5%
[3]
  viability, T/C: 79.7%
[4]
  viability, T/C: 70.8%
Second compound 0.01 µM, first compound 0.00316 µM
  viability, T/C: 85.3%
Second compound 0.01 µM, first compound 0.01 µM
  viability, T/C: 77.9%
[7]
  viability, T/C: 62.4%
[8]
  viability, T/C: 71.1%
[9]
  viability, T/C: 73.2%
[10]
  viability, T/C: 60.6%
Second compound 0.0316 µM, first compound 0.00316 µM
  viability, T/C: 68.6%
Second compound 0.0316 µM, first compound 0.01 µM
  viability, T/C: 68.4%
[13]
  viability, T/C: 71.4%
[14]
  viability, T/C: 52.3%
[15]
  viability, T/C: 63.6%
[16]
  viability, T/C: 46.5%
Second compound 0.1 µM, first compound 0.00316 µM
  viability, T/C: 66%
Second compound 0.1 µM, first compound 0.01 µM
  viability, T/C: 57.6%
[19]
  viability, T/C: 48.2%
[20]
  viability, T/C: 40.1%
[21]
  viability, T/C: 39.2%
[22]
  viability, T/C: 34.9%
Second compound 0.316 µM, first compound 0.00316 µM
  viability, T/C: 53.2%
Second compound 0.316 µM, first compound 0.01 µM
  viability, T/C: 34.8%
[25]
  viability, T/C: 43.4%
[26]
  viability, T/C: 43.3%
[27]
  viability, T/C: 42.4%
[28]
  viability, T/C: 29.6%
Second compound 1 µM, first compound 0.00316 µM
  viability, T/C: 42.2%
Second compound 1 µM, first compound 0.01 µM
  viability, T/C: 35.5%
[31]
  viability, T/C: 38.4%
[32]
  viability, T/C: 22.8%
[33]
  viability, T/C: 28.4%
[34]
  viability, T/C: 30.3%

## Cn1ncc(Cl)c1-c1cc(C(=O)NC(CN)Cc2cccc(F)c2)sc1Cl (stereo not drawn) + COc1c(OCCCN2CCOCC2)ccc2c3n(c(=NC(=O)c4cnc(N)nc4)nc12)CCN3
Second compound 0.00316 µM
  IC50: > 10000 nM
Second compound 0.01 µM
  IC50: > 10000 nM
Second compound 0.0316 µM
  IC50: 4960 nM
Second compound 0.1 µM
  IC50: > 10000 nM
Second compound 0.316 µM
  IC50: 149 nM
Second compound 1 µM
  IC50: < 31.6 nM
[1]
  viability, T/C: 93.7%
[2]
  viability, T/C: 107%
[3]
  viability, T/C: 73.8%
[4]
  viability, T/C: 94.8%
[5]
  viability, T/C: 84.8%
[6]
  viability, T/C: 60.2%
[7]
  viability, T/C: 88.5%
[8]
  viability, T/C: 106%
[9]
  viability, T/C: 76.2%
[10]
  viability, T/C: 84.2%
[11]
  viability, T/C: 67.3%
[12]
  viability, T/C: 64.7%
[13]
  viability, T/C: 84.1%
[14]
  viability, T/C: 80.7%
[15]
  viability, T/C: 70.5%
[16]
  viability, T/C: 80.5%
[17]
  viability, T/C: 57.8%
[18]
  viability, T/C: 37.8%
[19]
  viability, T/C: 76.4%
[20]
  viability, T/C: 59.3%
[21]
  viability, T/C: 77.9%
[22]
  viability, T/C: 67.8%
[23]
  viability, T/C: 52.8%
[24]
  viability, T/C: 56.5%
[25]
  viability, T/C: 59.1%
[26]
  viability, T/C: 55.3%
[27]
  viability, T/C: 45.1%
[28]
  viability, T/C: 36%
[29]
  viability, T/C: 52.5%
[30]
  viability, T/C: 36.6%
[31]
  viability, T/C: 40.4%
[32]
  viability, T/C: 46.5%
[33]
  viability, T/C: 30.9%
[34]
  viability, T/C: 39.7%
[35]
  viability, T/C: 31.4%
[36]
  viability, T/C: 24.4%

## Cn1nccc1Nc1nccc(-c2ccn(C(CO)c3ccc(Cl)c(F)c3)c(=O)c2)n1 (stereo not drawn) + COc1c(OCCCN2CCOCC2)ccc2c3n(c(=NC(=O)c4cnc(N)nc4)nc12)CCN3
Second compound 0.00316 µM
  IC50: > 10000 nM
Second compound 0.01 µM
  IC50: > 10000 nM
Second compound 0.0316 µM
  IC50: > 10000 nM
Second compound 0.1 µM
  IC50: > 10000 nM
Second compound 0.316 µM
  IC50: 65.1 nM
Second compound 1 µM
  IC50: < 31.6 nM
[1]
  viability, T/C: 117%
[2]
  viability, T/C: 117%
[3]
  viability, T/C: 86.2%
[4]
  viability, T/C: 86.9%
[5]
  viability, T/C: 137%
[6]
  viability, T/C: 74.5%
[7]
  viability, T/C: 96.2%
[8]
  viability, T/C: 87.6%
[9]
  viability, T/C: 96.4%
[10]
  viability, T/C: 100%
[11]
  viability, T/C: 97.5%
[12]
  viability, T/C: 97.8%
[13]
  viability, T/C: 73.5%
[14]
  viability, T/C: 96.8%
[15]
  viability, T/C: 72.9%
[16]
  viability, T/C: 79.2%
[17]
  viability, T/C: 83.1%
[18]
  viability, T/C: 84.8%
[19]
  viability, T/C: 61.1%
[20]
  viability, T/C: 67%
[21]
  viability, T/C: 55.6%
[22]
  viability, T/C: 86.7%
[23]
  viability, T/C: 58.9%
[24]
  viability, T/C: 43.6%
[25]
  viability, T/C: 58.5%
[26]
  viability, T/C: 43%
[27]
  viability, T/C: 34.8%
[28]
  viability, T/C: 49.5%
[29]
  viability, T/C: 57.5%
[30]
  viability, T/C: 29.3%
[31]
  viability, T/C: 44.4%
[32]
  viability, T/C: 31%
[33]
  viability, T/C: 40.7%
[34]
  viability, T/C: 49.4%
[35]
  viability, T/C: 42.9%
[36]
  viability, T/C: 27.6%
